Assay results from US8877809B2, “Compositions and methods for treating macular degeneration” (The Trustees of Columbia University in the City of New York, priority 2007, dated 2014).
Entries after “also recorded” stand apart in the source; their conditions may differ. Where two headings read alike, the source gives them in different places. One block for each compound: values may come before it.

Experiments:
[1] = system: ABCR knockout mice; conditions: cited from earlier work
[2] = mouse, in vivo; cited from earlier work
[3] = system: users; conditions: cited from earlier work
[4] = In vitro A2E formation from retinal, ethanolamine and acetic acid, followed by HPLC; conditions: mass spectrometry of the reaction mixture after 50 hours
[5] = system: CD-1 (ICR) mice; assay: A2E-lipofuscin in eyes of CD-1 (ICR) mice after IP retinal dosing, HPLC; assay type: in vivo; conditions: 1.5 mg IP bi-weekly for 6 weeks; HPLC at 445 nm
Method: C20-D3-all-trans-retinal was administered to mice in order to measure its ability to form A2E in the eye compared to all-trans-retinal. […], 8-week old, CD-1 (ICR) mice (from Charles River, Wilmington, Mass.) were divided up into two groups of five and administered 1.5 mg of ether all-trans-retinal or C20-D3-all-trans-retinal by intraperitoneal injection (IP) injection in a 10% solution of Tween-20 in saline bi-weekly for 6 weeks. At the end of this six-week period, each mouse was given a total of 60,000 I.U.(18 mg) or about 28-times the original amount of vitamin A in the mouse's body. Massive dosing with C20-D3-all-trans-retinal quickly replaces normal vitamin A stores with the C20-D3-analog. And, the injected retinal rapidly accumulates in the eye (rod outer segments), where at high enough concentrations it will react to form lipofuscin pigments. This is similar to the accumulation of all-trans-retinal in the ABCR^−/− mice and in patents with Stargardt's disease.
At the end of the six week period, the eyes were dissected, the retinas and eyecups pooled into groups of 4 or 5, and homogenated with 50 μL ethanol. The homogenate was centrifuged at 13,000 rpm for 5 minutes and 40 μL of the supernatant was drawn off and analyzed for A2E-lipofuscin by HPLC. Retinol and retinol esters were analyzed at 325 nm and A2E-lipofuscin was measured at 445 nm.

[6] = system: CD IGS rats; assay: A2E-lipofuscin in wild-type CD IGS rats after 8 weeks of IP retinal dosing, HPLC; assay type: in vivo; conditions: for Total A2E-lipofuscin versus retinal group (FIG. 7A, in words): C20-D3-retinal alone, Fenretinide or TDH given with retinal; for Less A2E-lipofuscin compared to animals administered only all-trans-retinal: all-trans-retinal 3 mg IP for 8 weeks plus drug at roughly 1.5 mg/day/animal in drinking water
Method: Animals treated with retinal had the greatest amount of A2E-lipofuscin (normalized to 100%).
45-50 day old, female, CD IGS rats (Charles River, Wilmington, Mass.) were divided up into four groups of three. Three of these groups were administered all-trans-retinal and the one group was given C20-D3-all-trans-retinal (IP injection in a 10% solution of Tween-20 in saline) at 3 mg, bi- or tri-weekly for 8 weeks (20, 3 mg injections total). Thus, at the end of the 8-week period the animals received roughly 20 times their original stores of vitamin A, as retinal or C20-D3-all-trans-retinal. Massive dosing with C20-D3-all-trans-retinal quickly replaces normal vitamin A stores with the C20-D3-analog. Of the three groups administered all-trans-retinal, one group was given Fenretinide (50) and another TDH (23), at doses of roughly 1.5 mg/day/animal (both supplied in the drinking water emulsified with 1 g/L of Nu-rice (RIBUS, Inc, St. Louis, Mo.)).
At the end of the 8 weeks, RPE, A2E-lipofuscin was evaluated in each of the four groups by HPLC as described in Example 3 and in FIG. 7. A2E-lipofuscin pigments were greatest in the animals receiving all-trans-retinal (the control group).

[7] = system: ABCR−/− mice; assay: A2E-lipofuscin in eyecups of ABCR-/- mice after 3-month diet, HPLC; assay type: in vivo; conditions: diet with 20,000 I.U./kg for 3 months, from 2 months of age; HPLC at 445 nm
Method: C20-D3-all-trans-retinol acetate was prepared according to the literature procedure (47) and was administered to ABCR^−/− mice (48, 49) in order to measure its ability to lead to lipofuscin compared to that of all-trans-retinol acetate. Eight 2-month old, ABCR^−/− mice raised on a standard rodent diet were then fed a diet containing 20,000 I.U./kg of either C20-D3-all-trans-retinol acetate or all-trans-retinol acetate for 3 months.
At the end of the […] period, the eyes were dissected, eyecups pooled into groups of six and homogenated with 80 μL ethanol. The homogenate was centrifuged at 13000 rpm for 5 min and 30 μL of the supernatant was drawn off and analyzed for A2E-lipofuscin by HPLC. A2E-lipofuscin was measured at 445 nm. […] This percentage of A2E reduction is on the same order of magnitude observed in similar studies in ABCR^−/− mice with the visual cycle antagonist TDH, TDT, Ret-NH2, 13-cis-retinoic, acid and fenretinide. However, in this example A2E reduction is achieved with doses of C20-D3-all-trans-retinol acetate that are 11- to 40-times less.

[8] = system: ABCR−/− mice; assay: Extractable lipofuscin pigments in eyecups of ABCR-/- mice raised exclusively on the diet, HPLC; assay type: in vivo; conditions: 5.5-6 month old mice raised only on the diet, offspring of mothers on the same diet
Method: On the other hand, lipofuscin pigments were undetectable in mice raised on the C20-D3-all-trans-retinol acetate diet.
As in Example 4, two groups of four ABCR^−/− mice where raised either on diets containing C20-D3-all-trans-retinol acetate or all-trans-retinol acetate. However, in this example the mice were offspring of mothers on the same diet, and thus where raised only on their respective vitamin A analogs. At 5.5-6 months of age the mice were sacrificed and the eyecups were analyzed for lipofuscin pigments as described in Example 4. The results are shown FIG. 5.

[9] = system: ABCR−/− mice; assay: Electron microscopy of RPE lipofuscin deposits in ABCR-/- mice raised exclusively on the diet; assay type: in vivo; conditions: 5.5-6 month old mice raised only on the diet
Excerpt: Due to the uncertainty in distinguishing lipofuscin from melanin bodies. Comparisons were made between the numbers of all dark, electron dense bodies found in the RPE between mice on the retinol acetate diet vs. those on the C20-D3-all-trans-retinol acetate diet. In addition to the electron dense lipofuscin and melanin bodies, RPE phagosomes, mitochondria, and lipid droplets are also present but were ultrastructurally distinct.
In order to measure the amount lipofuscin granules in the eyes of the above mice on a normal diet vs. the diet containing C20D3-all-trans-retinol acetate, eyecups from both groups of mice (2 from each group) were evaluated by electron microscopy.

[10] = In vitro A2E formation from C20-fluorinated retinal, monitored by HPLC; conditions: C20 hydrogens replaced by fluorine; disappearance of retinal and absence of fluorinated A2E by HPLC
Excerpt: In the present invention, when the C20 hydrogens of all-trans-retinoids are replaced by fluorine atoms (F3), the formation of A2E is eliminated, as measured by monitoring the disappearance of C20-F3-all-trans-retinal and the absence of the corresponding fluorinated A2E by HPLC. A2E and the ATR-dimer are believed to be formed in vivo by a multi-step reaction sequence involving two molecules of all-trans-retinal, as shown in FIG. 2. In the first step, all-trans-retinal condenses with a biological amine to form the imine. This imine is then thought to undergo a hydrogen shift involving a hydrogen atom at carbon C20 (step 2). Subsequent reaction (step 3) with another molecule of retinal either by 1,2- or 1,4-addition followed by cyclizations (step 4) yields A2E or ATR-dimer precursors, respectively. A2E is subsequently formed after spontaneous oxidation in air, and ATR dimer, after elimination (step 4).
It has been shown that replacing certain C—H bonds with C—F bonds in retinal (i.e., C20-F1-3-retinal) hampers the reactivity of all-trans-retinal, and, thus slows or eliminates the formation of A2E in vitro. By replacing hydrogen atoms at C20 with fluorine, the hydrogen shift step is blocked. Accordingly, C20-F1-3-retinal is expected to appreciably slow A2E and ATR-dimer biosynthesis.

[11] = system: patients; conditions: 200 mg/day for five years, 1,432 patients; cited from earlier work
[12] = system: patients; conditions: oral 600 or 900 mg/m2 bid in 6-week cycles, cited from earlier work
[13] = 2-month-old ABCR knockout mice, 50 mg/kg bi-weekly for two months

Compound: CC1=C(/C=C/C(C)=C/C=C/C(C)=C\C(=O)O)C(C)(C)CCC1 [13 cis-retinoic acid]
Lipofuscin formation in the RPE cell layer judged by electron microscopy ([1]; 2-month-old ABCR knockout mice, 20 mg/kg/day for two months): decrease in lipofuscin formation
Decrease in A2E formation compared to control ABCR knockout mice ([1]; 3-month-old ABCR knockout mice, 40 mg/kg/day for one month): 40-50%
Effect on dark adaptation when administered [2]: delayed dark adaptation
Share of users with back pain, muscle and joint pain, allergic reaction, dizziness, hair loss, dry eyes, decreased night vision, low blood counts and others ([3]; in vivo): 10-29%
Share of users with headache, fever, dry skin, dry mucous membranes, bone pain, nausea and vomiting, rash, mouth sores, itching, sweating, eyesight changes ([3]; larger doses used to treat cancer): more than 30%

Hydrogen deuterium exchange during the reaction [4]: not observed
Compound: [2H]C([2H])([2H])C(/C=C/C=C(C)/C=C/C1=C(C)CCCC1(C)C)=C\C=O [C20-D3-all-trans-retinal]
Less A2E-lipofuscin compared to mice administered all-trans-retinal [5]: 68%
Less A2E-lipofuscin than animals receiving all-trans-retinal ([6]; 3 mg IP bi- or tri-weekly for 8 weeks, given instead of all-trans-retinal): 35%
Total A2E-lipofuscin versus retinal group (FIG. 7A, in words) [6]: less A2E-lipofuscin

Compound: [2H]C([2H])([2H])C(/C=C/C=C(C)/C=C/C1=C(C)CCCC1(C)C)=C\COC(C)=O [C20-D3-all-trans-retinol acetate]
Less A2E-lipofuscin compared to mice on a diet of all-trans-retinol acetate [7]: 44-58%
Lipofuscin pigments extracted from eyecups (HPLC) [8]: undetectable
Electron dense (lipofuscin) bodies in the RPE versus retinol acetate diet [9]: less electron dense lipofuscin deposits; also recorded: considerably less electron dense bodies

Compound: CC(C=CC1=C(C)CCCC1(C)C)=CC=CC(=CC=O)C(F)(F)F [C20-F3-all-trans-retinal]
Formation of A2E [10]: eliminated

Compound: CC1=C(/C=C/C(C)=C/C=C/C(C)=C/C(=O)Nc2ccc(O)cc2)C(C)(C)CCC1 [Fenretinide, N-(4-hydroxyphenyl)retinamide]
Total A2E-lipofuscin versus retinal group (FIG. 7A, in words) [6]: less A2E-lipofuscin
Less A2E-lipofuscin compared to animals administered only all-trans-retinal [6]: 49%
Decrease in A2E formation compared to control ABCA4 knockout mice ([1]; 2-month-old ABCA4 knockout mice, 20 mg/kg/day for one month): 40-50%
Effect on dark adaptation when administered [2]: delayed dark adaptation
Dermatologic disorders, incidence [11]: 16%
Diminished dark adaptation, cumulative incidence [11]: 16%
Disorders of the ocular surface, incidence [11]: 8%
Gastrointestinal symptoms, incidence [11]: 8%
Patients with mild to moderate adverse effects possibly linked to the drug ([12]; 45 patients): 95%
Grade 2 toxicities reported as possibly linked to treatment [12]: seizures and confusion

Compound: CC1=C(/C=C/C(C)=C/C=C/C(C)=C/CN)C(C)(C)CCC1 [Ret-NH2, All-trans-retinylamine]
Decrease in A2E formation compared to control ABCA4 knockout mice ([1]; 1-month-old ABCA4 knockout mice, 40 mg/kg bi-weekly for two months): about 50%
Effect on dark adaptation when administered [2]: severe delayed dark adaptation

Compound: CCCCCCCCCCCCCCCCNC/C=C(\C)CC/C=C(\C)CCC=C(C)C [TDH, (2E,6E)-N-hexadecyl-3,7,11-trimethyldodeca-2,6,10-trienamine]
Total A2E-lipofuscin versus retinal group (FIG. 7A, in words) [6]: less A2E-lipofuscin
Less A2E-lipofuscin compared to animals administered only all-trans-retinal [6]: 31%
Decrease in A2E formation compared to control ABCR knockout mice [1, 13]: about 50%
Effect on dark adaptation when administered [2]: delayed dark adaptation

Compound: CCCCCCCCCCC(=O)/C=C(\C)CC/C=C(\C)CCC=C(C)C [TDT, (12E,16E)-13,17,21-trimethyldocosa-12,16,20-trien-11-one]
Decrease in A2E formation compared to control ABCR knockout mice [1, 13]: 50-85%
Effect on dark adaptation when administered [2]: delayed dark adaptation

Compound: CC1=C(/C=C/C(C)=C/C=C/C(C)=C/C=O)C(C)(C)CCC1 [all-trans-retinal]
Total A2E, HPLC peak area at 445 nm, normalized ([6]; FIG. 7A, three female rats per group): 100%

Compound: all-trans-retinol acetate
Lipofuscin pigments extracted from eyecups (HPLC) [8]: detectable
Lipofuscin pigments extracted from eyecups (HPLC) ([8]; listed as retinol acetate): considerable accumulation of lipofuscin pigments
